Measurements as given in paper PMC10707468, “Pharmacokinetics of Novel Dopamine Transporter Inhibitor CE-123 and Modafinil with a Focus on Central Nervous System Distribution” (International Journal of Molecular Sciences, 2023).

How the values were obtained:
[1] = In vivo rat tissue biodistribution / neuroPK study, 4 h intravenous constant infusion; parameters: species or system Sprague-Dawley rats; settings: for metabolite detection in rat samples: after 4 h iv infusion 20 mg/kg of parent
Method: The results are summarized in Figure 4 and Table S2 within Supplementary Materials.
In order to minimize the usage of animals and gain high confidence in the tissue distribution, a 4 h constant intravenous infusion study was designed based on the systemic pharmacokinetic parameters determined elsewhere. The catheters were surgically implanted a day before the PK experiment. The rats (n = 3 per compound) were then individually placed into a CMA 120 system (CMA, Solna, Sweden). […] A dose of 20 mg/kg was administered as a combination of an initial short 10 min infusion as a loading dose followed by a constant infusion up to 4 h, targeting a steady-state total plasma concentration of around 1000 ng/mL for each compound (based on the pilot study results). Blood was collected into heparinized Eppendorf tubes via a femoral artery catheter at 0 (before infusion starts) 1, 2, 3, and 4 h after the infusion started and immediately centrifuged at 10,000 rpm for 5 min at +4 °C. Plasma was then collected and kept at −20 °C. At 4 h, the rats were anesthetized via inhalation of 2.5% isoflurane (Abbot Scandinavia, Solna, Sweden), balanced with 1.5 L/min oxygen, after which the terminal blood and tissue samples were collected. […] The tissue samples (brain, spinal cord, liver, and kidney) were rapidly removed, pre-weighed into a 2 mL hard tissue homogenizing tube with mini-beads, and subsequently homogenized in 2 volumes of MQ water using a 4-Place Bead Mill Homogenizer (VWR, Stockholm, Sweden) at the maximal speed for 2 min and thereafter kept at +4 °C. The plasma and tissue homogenate samples were stored at −20 °C until LC–MS analysis.
For all the rat plasma and CSF samples, an aliquot of 50 µL was spiked with 50 µL of 4% PA in water containing the IS solution to disrupt the drug–protein binding. For all rat tissue samples (brain, spinal cord, liver, and kidney), an aliquot of 50 µL was spiked with 50 µL ice-cold ACN containing the IS solution for protein precipitation. The samples were vortexed and spun down for 10 min (3000× g, 4 °C) and 25 µL of clear supernatant was diluted with 225 µL 0.1% FA in water to achieve 10% of ACN in the solution. SPE clean-up was performed using an Oasis PRiME HLB µElution 96-well plate, 3 mg (Waters Corporation, Vienna, Austria). The SPE cartridges were preconditioned and equilibrated with 1 × 200 µL ACN and 0.1% FA in water each. The samples were loaded onto the cartridges and washed with 2 × 200 µL 0.1% FA in water and 1 × 200 µL ACN/0.1% FA in water 10:90 (v:v). The analytes were eluted from the SPE cartridge into a collection plate with 2 × 25 µL ACN/0.1% FA in water 70:30 (v:v). All the samples were diluted with 50 µL of 0.1% FA in water and 10 µL of sample was injected onto the LC–HRMS system.
All samples, blanks, standards, and quality control samples in the respective matrices were analyzed on a UHPLC system (Dionex UltiMate 3000 RSLC series system, Thermo Fisher Scientific, Inc., Dreieich, Germany) coupled with a high-resolution mass spectrometer (maXis HD Q-TOF, Bruker Daltonics, Bremen, Germany) equipped with a heated electrospray ionization (ESI) source. Reversed-phase chromatographic separation was performed on a Kinetex Phenyl-Hexyl column (2.6 µm, 2.1 × 50 mm, Phenomenex, Torrance, CA, USA), equipped with a precolumn (2.6 µm, Phenomenex, Torrance, CA, USA), at a flow rate of 0.4 mL/min. Eluent A was water containing 0.1% FA and eluent B ACN. A multi-step gradient was optimized as follows: the initial mobile phase composition (5% eluent B) was held constant for 1 min, followed by a linear increase to 30% eluent B until minute 1.5, to 40% eluent B until minute 5.5, and to 95% eluent B until minute 6. After a hold time of 2 min, the column was re-equilibrated for 2.5 min at the initial conditions (5% eluent B). The column compartment and the autosampler were maintained at 40 °C and at 8 °C, respectively. […]

[2] = In vitro plasma stability assay; format: in vitro ADME; settings: rat plasma, 37 °C
Method: In vitro plasma stability assay was used in the scope of the validation studies. Briefly, 40 μL of blank rat plasma or blank rat plasma containing 10% DMF as an inhibitor was first pre-warmed for 5 min at 37 °C using a Thermomixer® comfort (Eppendorf, Hamburg, Germany). […] The reaction was terminated after 0, 1, 2, and 4 h, via the addition of 50 μL of ice-cold ACN containing the IS solution. The samples were centrifuged for 10 min at 3000× g at 4 °C. The supernatant of all samples was diluted with 0.1% FA in water, 1:2 (v:v), and 10 µL of the sample was injected onto the LC–HRMS system.

[3] = In vitro metabolic stability in human liver microsomes; format: in vitro ADME; settings: R-modafinil 1, 5, 10, 50 µM
Method: An in vitro metabolism assay to study the phase I metabolism in the HLMs was in-house-developed. Optimization of the protocol included the test compound concentration (1, 5, 10 m and 50 µM) and extraction solvents (ACN and MeOH). […] The metabolic assay was initiated by the addition of 10 mM NADPH to the reaction solution and terminated after 0, 2.5, 5, 15, 30, 45, and 60 min via the addition of 200 µL of ice-cold MeOH containing the IS solution. The samples were than vortexed and spun for 15 min (14,000× g, 4 °C). The supernatant was collected, evaporated to dryness using the Concentrator plus (Eppendorf), and reconstituted with 100 µL of ACN/0.1% FA in water 10:90 (v:v). To ensure that the assay was performing adequately, the incubation of 1 µM diazepam at the same assay conditions as described was conducted, and the formation of its metabolites temazepam and nordazepam was monitored. A negative control included the absence of NADPH, the test compound, or HLMs during assay. […] The metabolic stability curves of the tested compounds were established by plotting the incubation time against the natural logarithm of the % parent drug remaining. The slope (k) of the linear part was utilized for the in vitro half-life (t1/2, min) as ln2/k. The V (µL/mg) was calculated as the volume of the reaction solution (100 µL) divided by the protein amount in the incubation (0.5 mg). The protein amount was predetermined by the supplier and the content was checked by using a Pierce™ BCA Protein Assay Kit (Thermo Fisher Scientific, Vienna, Austria) for each freshly opened tube. The intrinsic clearance (CLint, µL/min/mg) was calculated according to the following equation:(7) CLint=0.693/t1/2·V […]

male Sprague-Dawley rats = test system: male Sprague-Dawley rats; parameters: method as in PMID 29230168, PMID 29410048, PMID 33940050; settings: cited from earlier work
[4] = test system: cerebEND in vitro model of the blood–brain barrier; settings: cerebEND; cited from earlier work
CYP2C9 = CYP2C9 (Homo sapiens, UniProt P11712); settings: primary cell cultures of human hepatocytes; ref Robertson et al. (2000) [72]; cited from earlier work
CYP2B6 = settings: ref Robertson et al. (2000) [72]; cited from earlier work
CYP2C19 = CYP2C19 (Homo sapiens, UniProt P33261); settings: in HLMs; ref Robertson et al. (2000) [72]; cited from earlier work
CYP1A2 = settings: ref Robertson et al. (2000) [72]; cited from earlier work

Sequence of CYP2C9 (P11712 whole entry): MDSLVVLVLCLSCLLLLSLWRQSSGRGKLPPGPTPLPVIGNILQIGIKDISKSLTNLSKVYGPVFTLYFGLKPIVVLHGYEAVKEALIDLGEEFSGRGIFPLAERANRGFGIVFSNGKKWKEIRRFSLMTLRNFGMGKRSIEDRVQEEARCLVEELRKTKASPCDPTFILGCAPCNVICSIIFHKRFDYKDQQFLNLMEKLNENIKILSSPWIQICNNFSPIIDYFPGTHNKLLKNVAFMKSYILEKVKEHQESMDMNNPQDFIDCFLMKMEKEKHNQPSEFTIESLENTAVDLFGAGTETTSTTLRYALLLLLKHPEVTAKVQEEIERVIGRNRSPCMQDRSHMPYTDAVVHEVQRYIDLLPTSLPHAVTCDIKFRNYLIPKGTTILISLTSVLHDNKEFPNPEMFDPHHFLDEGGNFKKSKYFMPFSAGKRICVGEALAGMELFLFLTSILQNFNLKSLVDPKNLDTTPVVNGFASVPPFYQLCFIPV
Sequence of CYP2C19 (P33261 whole entry): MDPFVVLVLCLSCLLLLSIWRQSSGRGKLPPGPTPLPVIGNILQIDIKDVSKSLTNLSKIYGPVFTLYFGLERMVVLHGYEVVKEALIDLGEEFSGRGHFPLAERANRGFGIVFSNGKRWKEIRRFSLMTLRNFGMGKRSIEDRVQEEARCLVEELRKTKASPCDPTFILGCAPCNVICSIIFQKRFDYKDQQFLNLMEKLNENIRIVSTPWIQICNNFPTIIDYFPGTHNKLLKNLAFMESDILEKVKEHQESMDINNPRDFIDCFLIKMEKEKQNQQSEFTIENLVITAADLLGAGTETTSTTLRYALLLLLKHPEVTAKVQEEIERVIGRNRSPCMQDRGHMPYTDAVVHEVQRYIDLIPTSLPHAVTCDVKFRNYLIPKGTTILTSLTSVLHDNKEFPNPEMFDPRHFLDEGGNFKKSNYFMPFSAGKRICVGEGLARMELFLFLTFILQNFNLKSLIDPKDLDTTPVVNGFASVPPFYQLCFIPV

Compound: O=C(O)C[S+]([O-])C(c1ccccc1)c1ccccc1 (stereo not shown) [modafinic acid]
- metabolite detection in rat samples [1]: detected together in the plasma, CSF, liver, and kidneys
- metabolite detection during plasma incubation of R-modafinil [2]: detected at the 2 and 4 h time points
- metabolite formation during HLM incubation of R-modafinil [3]: not detected

Compound: [O-][S+](c1cncs1)C(c1ccccc1)c1ccccc1 (stereo not shown) [CE-123, 5-[(Diphenylmethyl)sulfinyl]thiazole]
- cognitive flexibility (male Sprague-Dawley rats; male Sprague-Dawley rats, without impulsive responding, compared to R-modafinil): enhance the cognitive flexibility
- memory acquisition and memory retrieval (male Sprague-Dawley rats; rats, doses that did not change locomotor activity): enhance memory acquisition and memory retrieval
- ability to cross in vitro model of the BBB [4]: could penetrate the BBB in a similar manner to diazepam

Compound: NC(=O)CS(=O)(=O)C(c1ccccc1)c1ccccc1 [modafinil sulfone]
- metabolite detection in rat samples [1]: detected together in the plasma, CSF, liver, and kidneys
- detection in rat brain and spinal cord tissue ([1]; after 4 h iv infusion of R-modafinil 20 mg/kg, S/N below LOQ): detected
- metabolite formation during HLM incubation of R-modafinil [3]: observed at all concentrations

Compound: NC(=O)C[S+]([O-])C(c1ccccc1)c1ccccc1 (stereo not shown) [modafinil, 2-[(Diphenylmethyl)sulfinyl]acetamide]
- CYP2C9 activity (CYP2C9): apparent suppression
- CYP2B6 induction (CYP2B6): modestly induces
- CYP2C19 inhibition (CYP2C19): reversible inhibition
- CYP1A2 induction (CYP1A2): modestly induces
